The source of these data is ChEMBL document CHEMBL4673346, “Discovery of a benzimidazole series as the first highly potent and selective ACSL1 inhibitors” (Bioorg Med Chem Lett, 2021).

SMILES strings stand for the structures. Bounds are passed on as bounds.

Experiment [1] addresses T1, Long-chain-fatty-acid--CoA ligase 6 (Homo sapiens, UniProt Q9UKU0).
T1 sequence (Q9UKU0 whole entry): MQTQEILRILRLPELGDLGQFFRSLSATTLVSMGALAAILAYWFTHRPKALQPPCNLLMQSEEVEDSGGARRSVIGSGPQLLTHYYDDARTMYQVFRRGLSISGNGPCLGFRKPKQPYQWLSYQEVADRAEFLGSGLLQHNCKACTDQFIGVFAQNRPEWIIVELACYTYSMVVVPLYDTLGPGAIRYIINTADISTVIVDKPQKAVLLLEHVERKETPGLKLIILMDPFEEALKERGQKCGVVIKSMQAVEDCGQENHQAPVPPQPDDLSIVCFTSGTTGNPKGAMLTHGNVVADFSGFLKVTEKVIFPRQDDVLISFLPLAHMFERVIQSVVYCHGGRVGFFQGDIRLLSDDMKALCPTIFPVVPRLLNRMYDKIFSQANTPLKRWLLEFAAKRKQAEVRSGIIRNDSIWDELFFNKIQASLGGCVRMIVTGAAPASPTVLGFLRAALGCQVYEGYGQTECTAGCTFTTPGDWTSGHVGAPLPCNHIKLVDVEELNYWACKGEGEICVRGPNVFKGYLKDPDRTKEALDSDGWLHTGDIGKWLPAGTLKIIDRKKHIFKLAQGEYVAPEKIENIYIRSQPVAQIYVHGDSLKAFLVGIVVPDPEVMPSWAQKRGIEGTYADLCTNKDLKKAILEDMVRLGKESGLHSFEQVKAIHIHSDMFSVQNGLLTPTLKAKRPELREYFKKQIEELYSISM
In words: Inhibition of recombinant human ACSL6 assessed as reduction in […] prodution incubated for 60 mins in presence of Coenzyme A, ATP and MgCl2 by MALDI-TOF MS analysis.

Experiment [2] has as its target Long-chain-fatty-acid--CoA ligase 4 (Homo sapiens, UniProt O60488). The experiment can be described thus: Inhibition of recombinant human ACSL4 assessed as reduction in […] prodution incubated for 120 mins in presence of Coenzyme A, ATP and MgCl2 by MALDI-TOF MS analysis.
The target in experiment [3] is T2, Long-chain-fatty-acid--CoA ligase 1 (Homo sapiens, UniProt P33121).
T2 sequence (P33121 whole entry): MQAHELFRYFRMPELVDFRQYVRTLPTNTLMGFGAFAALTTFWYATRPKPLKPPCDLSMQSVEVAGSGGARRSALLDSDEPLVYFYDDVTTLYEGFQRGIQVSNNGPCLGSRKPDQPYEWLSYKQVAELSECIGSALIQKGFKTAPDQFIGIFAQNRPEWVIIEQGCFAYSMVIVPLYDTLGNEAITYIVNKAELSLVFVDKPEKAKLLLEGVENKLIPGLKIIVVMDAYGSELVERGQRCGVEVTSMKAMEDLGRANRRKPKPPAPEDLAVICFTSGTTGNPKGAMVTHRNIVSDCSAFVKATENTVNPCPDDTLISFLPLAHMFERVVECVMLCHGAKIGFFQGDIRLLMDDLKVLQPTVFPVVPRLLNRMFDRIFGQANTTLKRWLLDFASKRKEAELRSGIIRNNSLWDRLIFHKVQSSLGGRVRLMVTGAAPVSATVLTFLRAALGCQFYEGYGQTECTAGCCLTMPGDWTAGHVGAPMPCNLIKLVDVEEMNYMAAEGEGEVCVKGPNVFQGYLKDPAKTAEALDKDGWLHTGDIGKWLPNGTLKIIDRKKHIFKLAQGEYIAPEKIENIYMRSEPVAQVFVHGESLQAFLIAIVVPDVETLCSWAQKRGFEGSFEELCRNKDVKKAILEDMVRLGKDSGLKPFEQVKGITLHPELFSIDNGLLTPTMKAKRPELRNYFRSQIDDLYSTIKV
The experiment can be described thus: Inhibition of ACSL1 (unknown origin) assessed as reduction in […] prodution incubated for 90 mins in presence of Coenzyme A, ATP and MgCl2 by MALDI-TOF MS analysis.

Experiment [4] deals with Fatty acid CoA ligase Acsl3 (Homo sapiens, UniProt O95573). The experiment can be described thus: Inhibition of recombinant human ACSL3 assessed as reduction in […] prodution incubated for 90 mins in presence of Coenzyme A, ATP and MgCl2 by MALDI-TOF MS analysis.
Chain of Fatty acid CoA ligase Acsl3 (O95573 whole entry): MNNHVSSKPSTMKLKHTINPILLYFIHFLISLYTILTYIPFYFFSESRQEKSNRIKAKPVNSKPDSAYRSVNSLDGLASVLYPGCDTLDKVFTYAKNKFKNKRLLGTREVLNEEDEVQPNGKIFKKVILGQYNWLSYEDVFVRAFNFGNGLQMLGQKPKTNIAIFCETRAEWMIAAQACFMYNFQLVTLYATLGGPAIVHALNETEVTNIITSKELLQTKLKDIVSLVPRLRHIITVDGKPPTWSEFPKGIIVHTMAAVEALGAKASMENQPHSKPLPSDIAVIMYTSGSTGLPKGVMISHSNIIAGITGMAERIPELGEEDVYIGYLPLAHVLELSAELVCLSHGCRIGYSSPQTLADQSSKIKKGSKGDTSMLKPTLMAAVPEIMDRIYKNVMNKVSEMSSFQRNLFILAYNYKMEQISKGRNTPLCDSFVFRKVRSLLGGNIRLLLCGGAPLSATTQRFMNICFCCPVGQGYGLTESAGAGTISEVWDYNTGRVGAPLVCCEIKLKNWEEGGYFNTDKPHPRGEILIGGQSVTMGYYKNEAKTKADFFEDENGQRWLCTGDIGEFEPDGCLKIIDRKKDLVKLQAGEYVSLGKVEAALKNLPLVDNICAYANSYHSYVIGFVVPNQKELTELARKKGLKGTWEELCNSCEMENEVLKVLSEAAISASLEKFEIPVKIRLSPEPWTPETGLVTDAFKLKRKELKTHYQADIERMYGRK
In experiment [5] the target is T3, Long-chain-fatty-acid--CoA ligase 5 (Homo sapiens, UniProt Q9ULC5).
T3 sequence (Q9ULC5 whole entry): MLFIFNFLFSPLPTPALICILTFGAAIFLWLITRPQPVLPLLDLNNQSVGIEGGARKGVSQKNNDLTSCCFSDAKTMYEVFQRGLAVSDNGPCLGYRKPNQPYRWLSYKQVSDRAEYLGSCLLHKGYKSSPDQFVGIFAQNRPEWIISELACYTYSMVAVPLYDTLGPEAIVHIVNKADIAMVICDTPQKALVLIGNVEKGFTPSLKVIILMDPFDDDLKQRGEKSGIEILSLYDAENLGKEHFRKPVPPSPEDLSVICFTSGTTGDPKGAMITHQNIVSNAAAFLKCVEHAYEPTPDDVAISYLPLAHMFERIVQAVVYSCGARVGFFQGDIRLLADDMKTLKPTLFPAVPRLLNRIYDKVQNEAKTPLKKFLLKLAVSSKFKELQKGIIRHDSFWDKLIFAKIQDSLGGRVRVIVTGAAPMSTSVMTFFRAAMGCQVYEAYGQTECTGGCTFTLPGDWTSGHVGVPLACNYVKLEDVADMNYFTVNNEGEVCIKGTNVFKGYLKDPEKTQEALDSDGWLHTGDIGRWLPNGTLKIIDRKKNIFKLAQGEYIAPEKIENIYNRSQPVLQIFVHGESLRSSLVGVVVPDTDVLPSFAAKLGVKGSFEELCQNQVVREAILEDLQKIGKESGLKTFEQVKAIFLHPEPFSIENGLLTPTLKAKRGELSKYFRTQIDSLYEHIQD
The experiment can be described thus: Inhibition of recombinant human ACSL5 assessed as reduction in […] prodution incubated for 90 mins in presence of Coenzyme A, ATP and MgCl2 by MALDI-TOF MS analysis.

Chain of Long-chain-fatty-acid--CoA ligase 4 (O60488 whole entry): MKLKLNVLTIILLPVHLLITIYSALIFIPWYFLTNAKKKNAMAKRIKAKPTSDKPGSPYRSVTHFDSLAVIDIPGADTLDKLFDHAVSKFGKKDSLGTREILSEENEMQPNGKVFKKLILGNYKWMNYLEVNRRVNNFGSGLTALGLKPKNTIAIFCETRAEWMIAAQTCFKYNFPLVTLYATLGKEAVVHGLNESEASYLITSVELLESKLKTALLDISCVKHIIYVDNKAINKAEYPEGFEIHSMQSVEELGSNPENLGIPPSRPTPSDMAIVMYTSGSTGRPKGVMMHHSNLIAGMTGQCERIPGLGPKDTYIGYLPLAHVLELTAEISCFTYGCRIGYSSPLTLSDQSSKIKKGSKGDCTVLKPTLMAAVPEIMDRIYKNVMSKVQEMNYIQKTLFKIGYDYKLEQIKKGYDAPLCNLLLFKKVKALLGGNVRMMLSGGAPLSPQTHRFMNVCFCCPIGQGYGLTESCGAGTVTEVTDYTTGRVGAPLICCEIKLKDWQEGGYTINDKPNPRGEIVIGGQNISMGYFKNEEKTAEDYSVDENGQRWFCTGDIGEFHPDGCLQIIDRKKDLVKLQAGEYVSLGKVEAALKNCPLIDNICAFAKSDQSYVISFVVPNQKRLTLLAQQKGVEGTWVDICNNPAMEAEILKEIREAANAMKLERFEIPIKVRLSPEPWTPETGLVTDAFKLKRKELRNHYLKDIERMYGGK

In the case of `O=c1c2ccccc2oc2ccc(O[C@H]3CC[C@@H](C(=O)O)CC3)cc12`, the IC50 (usually the concentration that inhibits the measured activity by half) in experiment [1] is 70 µM; in experiment [2], above 200 µM; in experiment [3] it was 0.24 µM; in experiment [4] it was 69 µM; in experiment [5], above 200 µM.

With `O=C(O)CCCCCCOc1ccc2oc3ccccc3c(=O)c2c1`, the concentration for half-maximal inhibition (IC50) in experiment [1] is 6.2 µM; in experiment [2], above 200 µM; in experiment [3] it was 0.31 µM; in experiment [4], 114 µM; in experiment [5], above 200 µM.

With `O=C(O)CCCCOc1ccc2oc3ccccc3c(=O)c2c1`, the IC50 is 93 µM in experiment [1]; above 200 µM in experiment [2]; 1.7 µM in experiment [3]; above 200 µM in experiment [4]; above 200 µM in experiment [5].
